This note sets out measurements from patent publication US20180073018A1, “COMPOSITIONS AND METHODS FOR SPECIFIC REACTIVATION OF HIV LATENT RESERVOIR” (priority 2015, published 2018).

Common to all, as to format: cell-based
Experiment [1] has as its system HIV-1 LTR promoter. Briefly: dCas9-VPH/msgRNA (or SAHA) reactivation of latent LTR-eLuc reporter in TZM-bI cells. As to conditions: TZM-bI, transient transfection or lentivirus infection, 2 days. On the procedure: Cells were plated in 96-well plate and the indicated MS2-gRNAs were cotransfected by Lipofectamine 3000 (FIG. 3A) or coinfected by lentiviruses (FIG. 3B, MOI=50) with pMSCV-LTR-dCas9-VP64-BFP plus pLV-MS2-p65-HSF1-GFP. Two days later, OneGlo luminescence assay was performed. The SIV MS2-gRNA-D was used as negative control. […] The gRNA-J has no effect due to 2 nucleotides mismatch to the LTR sequence from TZM-bI cells.
FIG. 8A, FIG. 8B, FIG. 8C, and FIG. 8D, depict the results of experiments of screening of MS2-mediated sgRNAs (msgRNAs) targeting the HIV-1 long terminal repeat (LTR) in the dCas9-synergistic activation mediator (SAM) system. FIG. 8A is a schematic illustration of SAM-VPH complex derived from dCas9-VP64 (V) and MS2-p65-HSF1 (PH) with msgRNAs. FIG. 8B is a graph showing similar activation of transfected EcoHIV-eLuc reporter by inducible (TRE) or constitutive (LTR) dCas9-VP64 expression in HEK293T cells. FIG. 8C is a graph showing similar reactivation of latent HIV-LTR-eLuc reporter in TZM-bI cells after either transient plasmid transfection by Lipofectamine 3000 or stable infection by lentivirus. […] The gRNA-J has no effect due to 2 nucleotides mismatch to the LTR sequence from TZM-bI cells. […]
FIG. 9A and FIG. 9B: TZM-bI cells were infected with dCas9-VPH and indicated msgRNA lentiviruses at 1 or 10 MOI and luciferase activity was measured at 2-21 days post-infection (dpi). […]
FIG. 12A, FIG. 12B, FIG. 12C: The dCas9-VPH stable TZM-bI cells were treated with SAHA or infected with indicated msgRNAs lentivirus for 2-4 d before luminescence reporter assay (FIG. 12A) and CELLTITER-GLO® luminescent cell viability assay (FIG. 12B). […]
Experiments were conducted to compare reactivation of HIV-LTR luciferase reporter in TZM-BI cells induced by gRNA/dCas9-VP64/MS2-p65-HSF1/delivered by either transient plasmid transfection (FIG. 3A) or stable lentivirus infection (FIG. 3B). […] Two days later, OneGlo luminescence assay was performed. […]

The subject of experiment [2] is HIV-1 LTR promoter. Briefly: dCas9-VP64/sgRNA reactivation of latent LTR-luciferase reporter in TZM-bI cells. As to conditions: sgRNA/dCas9-VP64 cotransfection, 3 days, relative to empty sgRNA control. The source says: FIG. 1A, FIG. 1B, and FIG. 1C, depict results of experiments comprising HIV-1 LTR-gRNA screening for dCas9-VP64-induced reactivation of latent LTR-luciferase reporter in TZM-bI cells. FIG. 1A is a schematic illustration depicting HIV-gRNA target sites. FIG. 1B is a schematic depicting gRNA/dCas9-VP64 binding to a target region of HIV-LTR that drives luciferase expression in TZM-bI cells. FIG. 1C depicts the results of experiments investigating the reactivation of HIV-LTR (as measured by luciferase reporter) induced by the various gRNAs. […] After 3 days, the luminescence of the cell lysate was measured with OneGlo luminescence kit. […]
Cultured cells were transfected using lipofectamine3000 transfection or lentivirus infection. The firefly-luciferase reporter assay was used using Envision multiplate reader. Treated and controls were imaged using fluorescent microscopy and/or were analyzed using flow cytometry. […]
(§1) Cells were cultured in a 96-well plate and transfected or transduced with indicated vectors. To examine the eLuc reporter activity, the cell lysate was prepared using the ONE-Glo luciferase assay system (Promega) and luminescence was measured in a 2104 ENVISION® Multilabel Reader (PerkinElmer). […]

Experiment [3] has as its system HIV-1 LTR promoter. As to the kind of experiment: dCas9-VP64/MS2-p65-HSF1 (SAM, dCas9-VPH) with MS2-sgRNA: EcoHIV-eLuc reporter assay in HEK293T cells. The note with it: MS2-sgRNA/dCas9-VP64/MS2-p65-HSF1, pEcoHIV-NL4-3-eLuc, MS2-p65-HSF1 only = 1.00.
Source text: FIG. 2A, FIG. 2B, and FIG. 2C, depict results of experiments comprising HIV-1 LTR-MS2-gRNA screening for LTR reactivation by SAM complex dCas9-VP64/MS2-p65-HSF1 in HEK293T cells. FIG. 2A and FIG. 2B depict a schematic of complex formation at the target site, where the complex comprises MS2-binding gRNA, dCas9-VP64, and MS2-p65-HSF1. FIG. 2C is a graph depicting the results of experiments investigating the reactivation of HIV-LTR induced by the various MS2-binding gRNA using pEcoHIV-NL4-3-eLuc reporter assay. […]
as §1
Thus, the newly-developed MS2-mediated SAM system was applied (FIG. 8A), which combined dCas9-VP64 with MS2-p65-HSF1 clustered trans-activators, designated dCas9-VPH (Konermann et al., 2015, Nature 517:583-8). […] To determine if dCas9-VPH/msgRNAs induced a better reactivation of HIV-1 latency, HIV-latent TZM-bI cells was cotransfected or cotransduced with dCas9-VPH and indicated msgRNAs (FIG. 8C) and the latency-reversing capability was measured. […]

For “MS2-p65-HSF1: MS2 bacteriophage coat protein fused to p65 and HSF1 transactivation domains (SEQ ID NO: 108)”, the “reactivation of HIV-LTR-luciferase reporter (in words)” value with HIV-1 LTR promoter [1] was “did not influence the basal activity”.

LTR-P: in the experiment with HIV-1 LTR promoter [2], the “sgRNA TZM-bI Fold (LTR-luciferase reporter)” value amounted to 1.15 Fold. Also, in the experiment with HIV-1 LTR promoter [3], the “MS2-sgRNA HEK293T Fold (EcoHIV-eLuc reporter)” value was 1.32 Fold.
